# Read-outs that look alike come from different tables or passages of the source.
# Columns and labels:
# rat primary hepatocytes [1] = assay: MMP assay in rat primary hepatocytes
# [2] = system: isolated rat liver mitochondria; assay: Oxygen consumption, Clark-type oxygen electrode; type: biochemical
# [3] = system: p53 (p53-bla HCT-116 cells); assay: p53 β-lactamase reporter gene assay; type: cell-based, human
# [4] = system: mitochondrial respiratory chain complex V; type: biochemical, rat
# [5] = system: Caenorhabditis elegans (Bristol N2); assay: C. elegans larval development and growth assay
# [6] = system: Caenorhabditis elegans (Bristol N2); details: in vivo
# HepG2 cells [7] = assay: ROS-Glo hydrogen peroxide (ROS) assay; type: cell-based, human
# [8] = target: T1, mitochondrial respiratory chain complex II (Rattus norvegicus, UniProt P21913+Q641Z9+Q6PCT8+Q920L2); assay: Respiratory chain complex II activity; type: biochemical; details: tested up to 100μM
# T1 construct: Submitochondrial particles were prepared by subjecting the intact rat mitochondria, isolated as described above, to three successive freeze–thaw cycles; from tissue; host or cells: rat liver mitochondria (submitochondrial particles)
# [9] = system: Caenorhabditis elegans strain PE255; details: in vivo
# [10] = system: Nrf2/ARE (ARE-bla HepG2 cells); assay: ARE β-lactamase reporter gene assay; type: cell-based, human
# hNSC = assay: MMP assay in human neural stem cells (hNSC); type: cell-based
# HepG2 cells [11] = system: HepG2 cells
# HepG2 cells [12] = assay: Intracellular ATP content (cell viability) assay; type: cell-based, human
# [13] = system: mitochondrial respiratory chain complex I; type: biochemical, rat; details: at 20μM
# HepG2 cells [14] = assay: Oxygen consumption, Seahorse XF24 analyzer; type: cell-based, human
# rat primary hepatocytes [15] = system: rat primary hepatocytes
# [16] = system: HeLa cells expressing YFP-Parkin; assay: Parkin translocation assay; type: cell-based, human
# [17] = system: Caenorhabditis elegans strain PE255; assay: In vivo C. elegans ATP status assay
# [18] = system: mitochondrial respiratory chain complex IV; type: biochemical, rat
# [19] = system: mitochondrial respiratory chain complex III; type: biochemical, rat
# HepG2 cells [20] = details: cited from earlier work
# T1 sequence (Q920L2 35-656): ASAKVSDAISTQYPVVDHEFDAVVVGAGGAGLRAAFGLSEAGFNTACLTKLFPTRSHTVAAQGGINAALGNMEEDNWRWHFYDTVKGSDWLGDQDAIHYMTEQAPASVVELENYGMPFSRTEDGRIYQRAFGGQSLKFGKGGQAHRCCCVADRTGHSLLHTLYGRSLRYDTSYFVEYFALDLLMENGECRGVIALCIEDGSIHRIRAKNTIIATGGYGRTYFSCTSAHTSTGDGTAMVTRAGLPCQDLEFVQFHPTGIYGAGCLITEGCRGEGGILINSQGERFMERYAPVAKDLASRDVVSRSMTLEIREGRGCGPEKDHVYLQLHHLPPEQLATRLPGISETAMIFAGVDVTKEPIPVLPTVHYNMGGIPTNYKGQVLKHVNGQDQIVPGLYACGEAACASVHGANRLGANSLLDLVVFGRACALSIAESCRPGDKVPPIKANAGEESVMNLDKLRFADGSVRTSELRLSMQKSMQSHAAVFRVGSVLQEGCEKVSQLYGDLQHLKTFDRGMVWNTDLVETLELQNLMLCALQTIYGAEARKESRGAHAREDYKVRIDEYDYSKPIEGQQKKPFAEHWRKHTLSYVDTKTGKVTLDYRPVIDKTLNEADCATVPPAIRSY
# T1 sequence (P21913 31-282): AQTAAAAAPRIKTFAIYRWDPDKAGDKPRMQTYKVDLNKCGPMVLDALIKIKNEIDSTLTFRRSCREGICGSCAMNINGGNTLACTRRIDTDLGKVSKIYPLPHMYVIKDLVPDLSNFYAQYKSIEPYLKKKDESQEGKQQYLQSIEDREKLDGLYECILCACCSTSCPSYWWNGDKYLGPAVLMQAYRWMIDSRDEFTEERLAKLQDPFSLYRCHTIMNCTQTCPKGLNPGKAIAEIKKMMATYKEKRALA
# T1 sequence (Q641Z9 1-169): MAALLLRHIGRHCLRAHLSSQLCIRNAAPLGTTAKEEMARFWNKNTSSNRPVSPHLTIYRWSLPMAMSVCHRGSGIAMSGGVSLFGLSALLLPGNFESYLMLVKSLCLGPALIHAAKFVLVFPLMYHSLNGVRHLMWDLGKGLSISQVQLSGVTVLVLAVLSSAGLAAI
# T1 sequence (Q6PCT8 57-159): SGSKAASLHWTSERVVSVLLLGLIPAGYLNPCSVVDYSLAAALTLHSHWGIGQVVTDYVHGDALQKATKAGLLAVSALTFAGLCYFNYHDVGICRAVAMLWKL
smiles,measurement,setting,value
CO/C=C(/C(=O)OC)c1ccccc1COc1cccc(C(F)(F)F)n1 [Picoxystrobin],IC50,rat primary hepatocytes [1]; read-out: MMP assays IC50 (µM) Rat Hepatocytes,14.6 ± 4.7 µM
same,IC50,rat primary hepatocytes [1]; read-out: Rat hepatocytes IC50 (MMP),16.1 µM
same,Potential Mechanism,[2],Inhibitor
same,effect on mitochondrial respiration (in words),[2],effects similar to antimycin A
same,"I-ADP, % of control (O2 consumption rate)",[2]; 0.0064 µM,94 (43.2) % of control
same,"I-sub, % of control (O2 consumption rate)",[2]; 0.0064 µM,104 (11.7) % of control
same,"II-ADP, % of control (O2 consumption rate)",[2]; 0.0064 µM,81 (61.2) % of control
same,"II-sub, % of control (O2 consumption rate)",[2]; 0.0064 µM,101 (20.8) % of control
same,"I-ADP, % of control (O2 consumption rate)",[2]; 0.032 µM,84 (38.8) % of control
same,"I-sub, % of control (O2 consumption rate)",[2]; 0.032 µM,103 (11.5) % of control
same,"II-ADP, % of control (O2 consumption rate)",[2]; 0.032 µM,36 (27.2) % of control
same,"II-sub, % of control (O2 consumption rate)",[2]; 0.032 µM,74 (15.3) % of control
same,"I-ADP, % of control (O2 consumption rate)",[2]; 0.16 µM,50 (22.8) % of control
same,"I-sub, % of control (O2 consumption rate)",[2]; 0.16 µM,90 (10.1) % of control
same,"II-ADP, % of control (O2 consumption rate)",[2]; 0.16 µM,11 (7.9) % of control
same,"II-sub, % of control (O2 consumption rate)",[2]; 0.16 µM,41 (8.5) % of control
same,"I-ADP, % of control (O2 consumption rate)",[2]; 0.8 µM,16 (7.2) % of control
same,"I-sub, % of control (O2 consumption rate)",[2]; 0.8 µM,59 (6.6) % of control
same,"II-ADP, % of control (O2 consumption rate)",[2]; 0.8 µM,9 (7.1) % of control
same,"II-sub, % of control (O2 consumption rate)",[2]; 0.8 µM,33 (6.9) % of control
same,"I-ADP, % of control (O2 consumption rate)",[2]; 4 µM,9 (4.0) % of control
same,"I-sub, % of control (O2 consumption rate)",[2]; 4 µM,39 (4.4) % of control
same,"II-ADP, % of control (O2 consumption rate)",[2]; 4 µM,9 (6.6) % of control
same,"II-sub, % of control (O2 consumption rate)",[2]; 4 µM,33 (6.9) % of control
same,"I-ADP, % of control (O2 consumption rate)",[2]; 20 µM,9 (4.1) % of control
same,"I-sub, % of control (O2 consumption rate)",[2]; 20 µM,34 (3.8) % of control
same,"II-ADP, % of control (O2 consumption rate)",[2]; 20 µM,10 (7.4) % of control
same,"II-sub, % of control (O2 consumption rate)",[2]; 20 µM,36 (7.4) % of control
same,"I-ADP, % of control (O2 consumption rate)",[2]; 100 µM,8 (3.7) % of control
same,"I-sub, % of control (O2 consumption rate)",[2]; 100 µM,25 (3.9) % of control
same,"II-ADP, % of control (O2 consumption rate)",[2]; 100 µM,7 (4.7) % of control
same,"II-sub, % of control (O2 consumption rate)",[2]; 100 µM,16 (4.9) % of control
same,EC50,"[3]; 16 h incubation, mean±SD of three experiments",6.68 ± 2.21 µM
same,p53 (HCT-116) (efficacy),[3]; % of positive control,40.2±19.6%
same,Complex V % inhibition (activity call),[4],Inactive
same,EXT: mean difference in nematode size relative to plate controls,[5]; 0.5 µM,0.05428
same,EXT: mean difference in nematode size relative to plate controls,[5]; 1 µM,0.004345
same,EXT: mean difference in nematode size relative to plate controls,[5]; 5 µM,1.265
same,EXT: mean difference in nematode size relative to plate controls,[5]; 10 µM,1.24
same,EXT: mean difference in nematode size relative to plate controls,[5]; 25 µM,0.112
same,EXT: mean difference in nematode size relative to plate controls,[5]; 50 µM,0.8304
same,EXT: mean difference in nematode size relative to plate controls,[5]; 75 µM,0.6508
same,EXT: mean difference in nematode size relative to plate controls,[5]; 100 µM,1.291
same,effect on larval growth (in words),[5]; 0.5–100μM,inhibited
same,"LEC EXT: lowest effect concentration for extinction, a measure of nematode size",[5]; in vivo,5 µM
same,"LEC (lowest effect concentration), larval growth assay",[6],< 10 µM
same,ROS (HepG2) (efficacy),HepG2 cells [7],15.4±5.47 ( 36.2±2.46 ) %
same,EC50,HepG2 cells [7]; read-out: ROS (HepG2) EC50,15.4 µM
same,Complex II % inhibition (activity call),[8],Inactive
same,"LEC (lowest effect concentration), ATP assay",[9],< 10 µM
same,EC50,"[10]; 16 h incubation, mean±SD of three experiments, read-out: ARE (HepG2) EC50",0.75 ± 0.49 µM
same,ARE (HepG2) (efficacy),[10]; % of positive control,57.6±7.85%
same,hNSC (efficacy) (MMP),hNSC,38.2±0.00 ( −92.8±16.3 ) %
same,IC50,hNSC; read-out: hNSC IC50 (MMP),38.2 µM
same,HepG2 (efficacy) Galactose (MMP),HepG2 cells [11],24.4±4.56 ( −119±6.45 ) %
same,HepG2 (efficacy) Glucose (MMP),HepG2 cells [11],13.6±14.5 ( −62.9±25.1 ) %
same,MMP assays efficacy (%) HepG2,HepG2 cells [11],-122%
same,IC50,HepG2 cells [11]; read-out: HepG2 IC50 Galactose (MMP),24.4 µM
same,IC50,HepG2 cells [11]; read-out: HepG2 IC50 Glucose (MMP),13.6 µM
same,IC50,HepG2 cells [11]; read-out: MMP assays IC50 (µM) HepG2,1 µM
same,"ATP (HepG2, galactose) (efficacy)",HepG2 cells [12],3.08±0.64 ( −76.4±37.7 ) %
same,"ATP (HepG2, glucose) (efficacy)",HepG2 cells [12],3.61±1.57 ( −76.4±30.3 ) %
same,IC50,"HepG2 cells [12]; read-out: ATP (HepG2, galactose) IC50",3.08 µM
same,IC50,"HepG2 cells [12]; read-out: ATP (HepG2, glucose) IC50",3.61 µM
same,Complex I % inhibition,[13],13.2±3.23 at 20μM %
same,Activity in oxygen consumption,HepG2 cells [14],Inhibitor
same,MMP assays efficacy (%) Rat Hepatocytes,rat primary hepatocytes [15],-101+6%
same,Rat hepatocytes (efficacy) (MMP),rat primary hepatocytes [15],16.1±7.03 ( −77.3±9.18 ) %
same,Parkin recruitment,[16],Inactive
same,Parkin translocation into mitochondria (in words),[16]; 3 h,did not induce Parkin translocation
same,LUM: mean difference in luminescence (ATP content) relative to plate controls,[17]; 0.5 µM,-0.02313
same,LUM: mean difference in luminescence (ATP content) relative to plate controls,[17]; 1 µM,-0.1059
same,LUM: mean difference in luminescence (ATP content) relative to plate controls,[17]; 5 µM,0.5517
same,LUM: mean difference in luminescence (ATP content) relative to plate controls,[17]; 10 µM,0.8678
same,LUM: mean difference in luminescence (ATP content) relative to plate controls,[17]; 25 µM,0.0568
same,LUM: mean difference in luminescence (ATP content) relative to plate controls,[17]; 50 µM,0.3665
same,LUM: mean difference in luminescence (ATP content) relative to plate controls,[17]; 75 µM,0.468
same,LUM: mean difference in luminescence (ATP content) relative to plate controls,[17]; 100 µM,0.877
same,effect on ATP content (in words),[17]; 0.5–100μM,inhibited
same,"LEC LUM: lowest effect concentration for luminescence, a measure of nematode ATP content",[17]; in vivo,5 µM
same,Complex IV % inhibition (activity call),[18],Inactive
same,inhibitory effect on Complex III at (concentration),[19],4 µM
same,Complex III % inhibition,[19]; at 4μM,53.3±3.26 at 4μM %
same,MMP assays efficacy (%) qHTS-HepG2,HepG2 cells [20],-116±5%
same,IC50,"HepG2 cells [20]; read-out: MMP assays IC50 (µM), qHTS-HepG2",9.31 ± 2.67 µM

# — paper PMC6112376, “Comprehensive Analyses and Prioritization of Tox21 10K Chemicals Affecting Mitochondrial Function by in-Depth Mechanistic Studies” (Environmental Health Perspectives, 2018)
